pEC50: −log10 of the molar value. Structures can show the parent of a compound that is named as a salt. Where two headings read alike, the source gives them in different places.
Target: TPK enzyme (Homo sapiens (Human), UniProt Q9H3S4)
Experiment: TPK enzyme activity test
Type: biochemical
Conditions: for Emax: calculated with the effect of DMSO on TPK enzyme activity as 100%; for pEC50: promoting effect on TPK enzyme activity

TPK enzyme, sequence (Q9H3S4 whole entry): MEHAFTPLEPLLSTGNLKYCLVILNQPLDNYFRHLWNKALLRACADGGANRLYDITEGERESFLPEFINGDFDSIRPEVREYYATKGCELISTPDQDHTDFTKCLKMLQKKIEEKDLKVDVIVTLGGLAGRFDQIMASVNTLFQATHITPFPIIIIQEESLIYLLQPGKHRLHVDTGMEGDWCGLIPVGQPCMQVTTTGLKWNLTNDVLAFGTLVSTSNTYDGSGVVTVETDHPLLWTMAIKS

SMILES	Emax [%]	pEC50	Emax (read-out: Emax) [%]
O=C(CCn1cnc2c([nH]c3ccc(F)cc32)c1=O)N1CCN(c2cccc(C(F)(F)F)c2)CC1 [Compound 153, 8-fluoro-3-(3-oxo-3-(4-(3-(trifluoromethyl)phenyl)piperazin-1-yl)propyl)-3,5-dihydro-4H-pyrimido[5,4-b]indol-4-one]	130.73	5.50	
Cc1ccc2[nH]c3c(=O)n(CCC(=O)N4CCN(c5ccc(Cl)cc5Cl)CC4)cnc3c2c1 [Compound 7, 3-(3-(4-(2,4-dichlorophenyl)piperazin-1-yl)-3-oxopropyl)-8-methyl-3,5-dihydro-4H-pyrimido[5,4-b]indol-4-one]		5.63	148
Cc1ccc2[nH]c3c(=O)n(CCC(=O)N4CCN(c5cccc(C(F)(F)F)c5)CC4)ccc3c2c1 [Compound 59, 6-methyl-2-(3-oxo-3-(4-(3-(trifluoromethyl)phenyl)piperazin-1-yl)propyl)-2,9-dihydro-1H-pyrido[3,4-b]indol-1-one]		5.86	190
Cc1ccc2oc3c(=O)n(CCC(=O)NCc4cccc(C(F)(F)F)c4)cnc3c2c1 [Compound 87, 3-(8-methyl-4-oxobenzofuro[3,2-d]pyrimidin-3(4H)-yl)-N-(3-(trifluoromethyl)benzyl)propanamide]			146
Cc1ccc2c(c1)[nH]c1c(=O)n(CCC(=O)N3CCN(c4ccc(Cl)cc4Cl)CC3)cnc12 [Compound 3, 3-(3-(4-(2,4-dichlorophenyl)piperazin-1-yl)-3-oxopropyl)-7-methyl-3,5-dihydro-4H-pyrimido[5,4-b]indol-4-one]		5.75	136
Cc1ccc2[nH]c3c(=O)n(CCCCN4CCN(c5cccc(C(F)(F)F)c5)CC4)cnc3c2c1 [Formate salt of 48, 8-methyl-3-(4-(4-(3-(trifluoromethyl)phenyl)piperazin-1-yl)butyl)-3,5-dihydro-4H-pyrimido[5,4-b]indol-4-one]		5.97	210
Cc1ccc2[nH]c3c(=O)n(CCNC(=O)Cc4cccc(C(F)(F)F)c4)cnc3c2c1 [Compound 72, N-(2-(8-methyl-4-oxo-4,5-dihydro-3H-pyrimido[5,4-b]indol-3-yl)ethyl)-2-(3-(trifluoromethyl)phenyl)acetamide]			122

Results, then the compound that gave them:

Emax [%]	pEC50	Emax (read-out: Emax) [%]	SMILES
176			COC(=O)CCC(=O)OCCN1CCN(CCCN2c3ccccc3Sc3ccc(C(F)(F)F)cc32)CC1 [Compound 184, methyl (2-(4-(3-(2-(trifluoromethyl)-10H-phenothiazin-10-yl)propyl)piperazin-1-yl)ethyl) Succinate]
		168	Cc1ccc2[nH]c3c(=O)n(CCC(=O)NCCCc4cccc(C(F)(F)F)c4)cnc3c2c1 [Compound 69, 3-(8-methyl-4-oxo-4,5-dihydro-3H-pyrimido[5,4-b]indol-3-yl)-N-(3-(3-(trifluoromethyl)phenyl)propyl)propanamide]
		123	Cc1ccc2[nH]c3c(=O)n(CCC(=O)N4CCN(c5ccc(F)cc5)CC4)cnc3c2c1 [Compound 33]
		139	O=C(CCn1cnc2c([nH]c3ccc(F)cc32)c1=O)N1CCN(c2cccc(C(F)(F)F)c2)CC1 [Compound 39]
	5.65	137	COc1ccc2[nH]c(=O)c3c(ncn3CCCC(=O)N3CCN(c4cccc(Cl)c4Cl)CC3)c2c1 [Compound 231, 3-(4-(4-(2,3-dichlorophenyl)piperazin-1-yl)-4-oxobutyl)-8-methoxy-3,5-dihydro-4H-imidazo[4,5-c]quinolin-4-one]
	5.63	151	Cc1ccc2[nH]c3c(=O)n(CCC(=O)N4CCN(c5cccc(S(=O)(=O)N6CCCCC6)c5)CC4)cnc3c2c1 [Compound 170, 8-methyl-3-(3-oxo-3-(4-(3-(piperidin-1-ylsulfonyl)phenyl)piperazin-1-yl)propyl)-3,5-dihydro-4H-pyrimido[5,4-b]indol-4-one]
	6.96	159	Cc1ccc2[nH]c3c(=O)n(CCC(=O)N4CCN(c5cccc(Cl)c5Cl)CC4)cnc3c2c1 [Compound 1, 3-(3-(4-(2,3-dichlorophenyl)piperazin-1-yl)-3-oxopropyl)-8-methyl-3,5-dihydro-4H-pyrimido[5,4-b]indol-4-one]
